Source: ChEMBL document CHEMBL1131386, “Synthesis and evaluation of 11beta-substituted 21-chloro/iodo-(17alpha,20E/Z)-19-norpregna-1,3,5(10),20-te traene-3, 17beta-diols: high-affinity ligands for the estrogen receptor” (J Med Chem, 1998)

How the values were obtained:
[1] = molecular target: T1, Estrogen receptor (Ovis aries) (UniProt P49885+Q9TU15); experiment: Relative binding affinity for lamb uterine estrogen receptor at 25 degree C; type: protein assay
[2] = molecular target: T1, Estrogen receptor (Ovis aries); experiment: Relative binding affinity for lamb uterine estrogen receptor at 4C; type: protein assay

| Structure (SMILES) | RBA [1] | RBA [2] |
| --- | --- | --- |
| C=C[C@H]1C[C@@]2(C)[C@@H](CC[C@@]2(O)/C=C\I)[C@@H]2CCc3cc(O)ccc3[C@H]21 | 1200 | 98 |
| C[C@]12CC[C@@H]3c4ccc(O)cc4CC[C@H]3[C@@H]1CC[C@@]2(O)/C=C/Cl | 89 | 102 |
| C=C[C@H]1C[C@@]2(C)[C@@H](CC[C@@]2(O)/C=C/I)[C@@H]2CCc3cc(O)ccc3[C@H]21 | 447 | 78 |
| C[C@]12CC[C@@H]3c4ccc(O)cc4CC[C@H]3[C@@H]1CC[C@@]2(O)/C=C/I | 62 | 77 |
| C[C@]12CC[C@@H]3c4ccc(O)cc4CC[C@H]3[C@@H]1CC[C@@]2(O)/C=C\I | 776 | 202 |

Next, values leading:

| RBA [1] | RBA [2] | Structure (SMILES) |
| --- | --- | --- |
| 724 | 107 | C=C[C@H]1C[C@@]2(C)[C@@H](CC[C@@]2(O)/C=C/Cl)[C@@H]2CCc3cc(O)ccc3[C@H]21 |
| 513 | 48 | CO[C@H]1C[C@@]2(C)[C@@H](CC[C@@]2(O)/C=C\I)[C@@H]2CCc3cc(O)ccc3[C@H]21 |
| 65 | 34 | CO[C@H]1C[C@@]2(C)[C@@H](CC[C@@]2(O)/C=C/I)[C@@H]2CCc3cc(O)ccc3[C@H]21 |
| 195 | 22 | CO[C@H]1C[C@@]2(C)[C@@H](CC[C@@]2(O)/C=C\Cl)[C@@H]2CCc3cc(O)ccc3[C@H]21 |
| 704 | 101 | C=C[C@H]1C[C@@]2(C)[C@@H](CC[C@@]2(O)/C=C\Cl)[C@@H]2CCc3cc(O)ccc3[C@H]21 |
| 65 | 29 | CO[C@H]1C[C@@]2(C)[C@@H](CC[C@@]2(O)/C=C/Cl)[C@@H]2CCc3cc(O)ccc3[C@H]21 |
| 199 | 126 | C[C@]12CC[C@@H]3c4ccc(O)cc4CC[C@H]3[C@@H]1CC[C@@]2(O)/C=C\Cl |
